Laboratory results as given in ChEMBL document CHEMBL5537185, “Discovery of the First-in-Class RORγ Covalent Inhibitors for Treatment of Castration-Resistant Prostate Cancer” (J Med Chem, 2024).
Blank lines part the entries; values can stand above or below the compound they belong to. Active and inactive are the calls of the source. The rule behind the calls is not given here.

What was measured:
[1] = molecular target: T1, Nuclear receptor ROR-gamma (Homo sapiens, UniProt P51449); experiment: Inhibition of Gal4-fused RORgamma LBD (unknown origin) expressed in HEK293T cells incubated for 48 hrs by luciferase based assay; type: cell-based
T1 sequence (P51449 whole entry): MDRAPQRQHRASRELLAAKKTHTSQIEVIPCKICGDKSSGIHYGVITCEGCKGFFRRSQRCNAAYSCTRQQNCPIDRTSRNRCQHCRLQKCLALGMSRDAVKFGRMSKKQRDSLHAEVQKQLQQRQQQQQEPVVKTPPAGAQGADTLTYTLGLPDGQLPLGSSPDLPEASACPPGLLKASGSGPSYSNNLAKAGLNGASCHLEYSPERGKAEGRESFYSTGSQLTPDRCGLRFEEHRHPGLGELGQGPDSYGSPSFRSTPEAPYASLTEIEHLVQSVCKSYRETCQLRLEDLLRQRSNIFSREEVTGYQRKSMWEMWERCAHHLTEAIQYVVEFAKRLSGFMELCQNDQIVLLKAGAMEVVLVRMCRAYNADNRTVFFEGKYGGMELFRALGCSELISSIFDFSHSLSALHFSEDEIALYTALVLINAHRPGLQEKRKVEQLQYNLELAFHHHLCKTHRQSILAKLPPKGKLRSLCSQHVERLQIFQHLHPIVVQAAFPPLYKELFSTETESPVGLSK

LNCaP = experiment: Antiproliferative activity against human LNCaP cells incubated for 4 days by CCK8 assay; conditions: 96 h
[2] = Metabolic stability in mouse liver microsomes assessed as half life at 0.1 uM preincubated for 10 mins followed by NADPH addition and measured upto 60 mins by LC-MS/MS analysis; type: ADME, Microsome; conditions: time < 70 min
CWR22R [3] = experiment: Antiproliferative activity against human 22Rv1 cells incubated for 4 days by CCK8 assay; conditions: 22Rv1, 96 h
LNCaP C4-2B [4] = experiment: Antiproliferative activity against human LNCaP C4-2B cells incubated for 4 days by CCK8 assay; conditions: 96 h
LNCaP C4-2B [5] = experiment: Induction of apoptosis in human LNCaP C4-2B cells assessed as increase in caspase-7 activity at 1.25 to 5 uM by Western blot analysis; type: functional, cell-based; conditions: dose 1.25-5 µM
CWR22R [6] = experiment: Downregulation of AR expression in human 22Rv1 cells at 1.25 to 5 uM by Western blot analysis; type: functional, cell-based; conditions: dose 1.25-5 µM, time 24-72 hrs, TDE = time-dependent effect
[7] = Half life in ICR mouse at 10 mg/kg, po measured upto 24 hrs by LC-MS/MS analysis; type: ADME, organism-based; conditions: in vivo
CWR22R [8] = experiment: Downregulation of AR-V7 expression in human 22Rv1 cells at 1.25 to 5 uM by Western blot analysis; type: functional, cell-based; conditions: dose 1.25-5 µM, time 24-72 hrs, TDE = time-dependent effect
LNCaP C4-2B [9] = experiment: Induction of apoptosis in human LNCaP C4-2B cells assessed as increase in caspase-3 activity at 1.25 to 5 uM by Western blot analysis; type: functional, cell-based; conditions: dose 1.25-5 µM
[10] = Volume of distribution at steady state in ICR mouse at 3 mg/kg, iv measured upto 24 hrs by LC-MS/MS analysis; type: ADME, organism-based; conditions: in vivo, read-out: Vdss
LNCaP C4-2B [11] = experiment: Downregulation of AR expression in human LNCaP C4-2B cells at 1.25 to 5 uM by Western blot analysis; type: functional, cell-based; conditions: dose 1.25-5 µM, time 24-72 hrs, TDE = time-dependent effect
[12] = AUClast in ICR mouse at 3 mg/kg, iv measured upto 24 hrs by LC-MS/MS analysis; type: ADME, organism-based; conditions: in vivo
LNCaP C4-2B [13] = experiment: Downregulation of AR expression in human LNCaP C4-2B cells incubated for 24 to 72 hrs by Western blot analysis; type: functional, cell-based; conditions: dose 1.25-5 µM, time 24-72 hrs
CWR22R [14] = experiment: Downregulation of KLK3 mRNA expression in human 22Rv1 cells at 1.25 to 5 uM incubated for 48 hrs by qRT-PCR analysis; type: functional, cell-based; conditions: dose 1.25-5 µM
CWR22R [15] = experiment: Antitumor activity against human 22Rv1 cells xenografted in NOD/SCID mouse assessed as tumor growth inhibition at 10 mg/kg, ip administered five times a week for 2 weeks and measured two times per week; type: functional; conditions: 22Rv1, 336 h, read-out: TGI
CWR22R [16] = experiment: Antitumor activity against human 22Rv1 cells xenografted in NOD/SCID mouse assessed as tumor growth inhibition at 5 mg/kg, ip administered five times a week for 2 weeks and measured two times per week; type: functional; conditions: 22Rv1, 336 h, read-out: TGI
[17] = AUCinfinity in ICR mouse at 10 mg/kg, po measured upto 24 hrs by LC-MS/MS analysis; type: ADME, organism-based; conditions: in vivo
[18] = AUCinfinity in ICR mouse at 3 mg/kg, iv measured upto 24 hrs by LC-MS/MS analysis; type: ADME, organism-based; conditions: in vivo
[19] = molecular target: T2, Nuclear receptor ROR-gamma (Homo sapiens) (UniProt P51449); experiment: Covalent binding affinity to RORgamma (unknown origin) expressed in Escherichia coli assessed as covalent adduct formation incubated for 4 hrs by mass spectrometric analysis
T2 sequence (whole entry): T1 sequence (P51449 whole entry)

LNCaP C4-2B [20] = experiment: Downregulation of KLK2 mRNA expression in human LNCaP C4-2B cells at 1.25 to 5 uM incubated for 48 hrs by qRT-PCR analysis; type: functional, cell-based; conditions: dose 1.25-5 µM
CWR22R [21] = experiment: Antitumor activity against human 22Rv1 cells xenografted in ip dosed NOD/SCID mouse assessed as tumor growth inhibition administered five times a week for 2 weeks and measured two times per week; type: functional, organism-based; conditions: dose 5-10 mg/kg
[22] = Oral bioavailability in ICR mouse at 10 mg/kg measured upto 24 hrs by LC-MS/MS analysis; type: ADME, organism-based; conditions: in vivo
CWR22R [23] = experiment: Downregulation of KLK2 mRNA expression in human 22Rv1 cells at 1.25 to 5 uM incubated for 48 hrs by qRT-PCR analysis; type: functional, cell-based; conditions: dose 1.25-5 µM
CWR22R [24] = experiment: Downregulation of NKX3-1 mRNA expression in human 22Rv1 cells at 1.25 to 5 uM incubated for 48 hrs by qRT-PCR analysis; type: functional, cell-based; conditions: dose 1.25-5 µM
LNCaP C4-2B [25] = experiment: Downregulation of KLK3 mRNA expression in human LNCaP C4-2B cells at 1.25 to 5 uM incubated for 48 hrs by qRT-PCR analysis; type: functional, cell-based; conditions: dose 1.25-5 µM
[26] = Half life in ICR mouse at 3 mg/kg, iv measured upto 24 hrs by LC-MS/MS analysis; type: ADME, organism-based; conditions: in vivo
[27] = Clearance in ICR mouse at 3 mg/kg, iv measured upto 24 hrs by LC-MS/MS analysis; type: ADME, organism-based; conditions: in vivo
LNCaP C4-2B [28] = experiment: Downregulation of AR-V7 expression in human LNCaP C4-2B cells incubated for 24 to 72 hrs by Western blot analysis; type: functional, cell-based; conditions: dose 1.25-5 µM, time 24-72 hrs
[29] = Cmax in ICR mouse at 10 mg/kg, po measured upto 24 hrs by LC-MS/MS analysis; type: ADME, organism-based; conditions: in vivo
LNCaP C4-2B [30] = experiment: Downregulation of AR expression in human LNCaP C4-2B cells at 1.25 to 5 uM incubated for 48 hrs by qRT-PCR analysis; type: functional, cell-based; conditions: dose 1.25-5 µM
LNCaP C4-2B [31] = experiment: Downregulation of AR-V7 expression in human LNCaP C4-2B cells incubated for 48 hrs by qRT-PCR analysis; type: functional, cell-based; conditions: dose 1.25-5 µM
CWR22R [32] = experiment: Downregulation of AR expression in human 22Rv1 cells incubated for 24 to 72 hrs by Western blot analysis; type: functional, cell-based; conditions: dose 1.25-5 µM, time 24-72 hrs
[33] = Toxicity in NOD/SCID mouse assessed as tolerability at 5 to 10 mg/kg, ip administered five times a week for 2 weeks and measured two times per week; type: organism-based; conditions: in vivo, 336 h, dose 5-10 mg/kg
LNCaP C4-2B [34] = experiment: Inhibition of colony formation in human LNCaP C4-2B cells compound addition at every 3 days and measured after 14 days by crystal violet staining based assay; type: functional, cell-based; conditions: dose 1.25-5 µM, time 14.0 day
CWR22R [35] = experiment: Induction of apoptosis in human 22Rv1 cells assessed as increase in caspase-3 activity at 1.25 to 5 uM by Western blot analysis; type: functional, cell-based; conditions: dose 1.25-5 µM
CWR22R [36] = experiment: Downregulation of AR-V7 expression in human 22Rv1 cells incubated for 24 to 72 hrs by Western blot analysis; type: functional, cell-based; conditions: dose 1.25-5 µM, time 24-72 hrs
[37] = Cmax in ICR mouse at 3 mg/kg, iv measured upto 24 hrs by LC-MS/MS analysis; type: ADME, organism-based; conditions: in vivo
LNCaP C4-2B [38] = experiment: Downregulation of NKX3-1 mRNA expression in human LNCaP C4-2B cells at 1.25 to 5 uM incubated for 48 hrs by qRT-PCR analysis; type: functional, cell-based; conditions: dose 1.25-5 µM
CWR22R [39] = experiment: Inhibition of colony formation in human 22Rv1 cells compound addition at every 3 days and measured after 14 days by crystal violet staining based assay; type: functional, cell-based; conditions: dose 1.25-5 µM, time 14.0 day
[40] = Toxicity in NOD/SCID mouse assessed as change in body weight at 5 to 10 mg/kg, ip administered five times a week for 2 weeks and measured two times per week; type: organism-based; conditions: in vivo, 336 h, dose 5-10 mg/kg
CWR22R [41] = experiment: Downregulation of AR expression in human 22Rv1 cells incubated for 48 hrs by qRT-PCR analysis; type: functional, cell-based; conditions: dose 1.25-5 µM
CWR22R [42] = experiment: Induction of apoptosis in human 22Rv1 cells assessed as increase in caspase-7 activity at 1.25 to 5 uM by Western blot analysis; type: functional, cell-based; conditions: dose 1.25-5 µM
LNCaP C4-2B [43] = experiment: Downregulation of AR-V7 expression in human LNCaP C4-2B cells at 1.25 to 5 uM by Western blot analysis; type: functional, cell-based; conditions: dose 1.25-5 µM, TDE = time-dependent effect
[44] = AUClast in ICR mouse at 10 mg/kg, po measured upto 24 hrs by LC-MS/MS analysis; type: ADME, organism-based; conditions: in vivo
CWR22R [45] = experiment: Downregulation of AR-V7 expression in human 22Rv1 cells incubated for 48 hrs by qRT-PCR analysis; type: functional, cell-based; conditions: dose 1.25-5 µM

IC50 [1]: 50 nM
IC50 (LNCaP): 700 nM
half-life at 0.1 µM [2]: 2.07 min
IC50 (LNCaP C4-2B [4]): 290 nM
SMILES: C=CC(=O)Nc1ccccc1-c1c(Cl)cc(NC(=O)Cc2ccc(S(=O)(=O)CC)cc2)cc1Cl
IC50 (CWR22R [3]): 920 nM

IC50 [1]: 6190 nM
SMILES: C=CC(=O)Nc1ccccc1-c1ccc(NC(=O)Cc2ccc(S(=O)(=O)CC)cc2)cn1

half-life [7]: 36.6 min
Vd [10]: 0.75 L/kg
AUC(0-t) at 24 h [12]: 584 ng·h/mL
AUC(0-inf) [17]: 251 ng·h/mL
AUC(0-inf) [18]: 585 ng·h/mL
IC50 [1]: 210 nM
Activity [19]: Active
IC50 (LNCaP): 630 nM
bioavailability [22]: 12.7%
half-life [26]: 13.2 min
clearance [27]: 86.8 mL/min/kg
Cmax [29]: 270 ng/mL
half-life at 0.1 µM [2]: 21.3 min
Cmax [37]: 2000 ng/mL
IC50 (LNCaP C4-2B [4]): 470 nM
AUC(0-t) at 24 h [44]: 248 ng·h/mL
SMILES: C=CC(=O)Nc1ccccc1-c1ccc(NC(=O)Cc2ccc(S(=O)(=O)CC)cc2)cc1Cl
Activity (LNCaP C4-2B [5]): Active
Activity (CWR22R [6]): Tde
Activity (CWR22R [8]): Tde
Activity (LNCaP C4-2B [9]): Active
Activity (LNCaP C4-2B [11]): Tde
Activity (LNCaP C4-2B [13]): Dose-Dependent Effect
Activity (CWR22R [14]): Active
inhibition in vivo at 10 mg/kg (CWR22R [15]): 62.6%
inhibition in vivo at 5 mg/kg (CWR22R [16]): 41.9%
Activity (LNCaP C4-2B [20]): Active
Activity (CWR22R [21]): Dose-Dependent Effect
Activity (CWR22R [23]): Active
Activity (CWR22R [24]): Active
Activity (LNCaP C4-2B [25]): Active
Activity (LNCaP C4-2B [28]): Dose-Dependent Effect
Activity (LNCaP C4-2B [30]): Dose-Dependent Effect
Activity (LNCaP C4-2B [31]): Dose-Dependent Effect
Activity (CWR22R [32]): Dose-Dependent Effect
Activity [33]: Non-Toxic
inhibition (LNCaP C4-2B [34]): Dose-Dependent Effect
Activity (CWR22R [35]): Active
Activity (CWR22R [36]): Dose-Dependent Effect
IC50 (CWR22R [3]): 770 nM
Activity (LNCaP C4-2B [38]): Active
inhibition (CWR22R [39]): Dose-Dependent Effect
Activity [40]: Non-Toxic
Activity (CWR22R [41]): Dose-Dependent Effect
Activity (CWR22R [42]): Active
Activity (LNCaP C4-2B [43]): Tde
Activity (CWR22R [45]): Dose-Dependent Effect

IC50 [1]: 1120 nM
SMILES: C=C(C)C(=O)Nc1ccccc1-c1ccc(NC(=O)Cc2ccc(S(=O)(=O)CC)cc2)cc1C

IC50 [1]: 4640 nM
SMILES: C=CC(=O)Nc1ccccc1-c1ccc(NC(=O)c2ccc(OC)nc2)cc1C

IC50 [1]: 3040 nM
SMILES: C=CC(=O)Nc1ccccc1-c1ccc(NC(=O)Cc2ccccc2[N+](=O)[O-])cc1C
